Legend:
Type in all cases: cell-based
[1] = tested on: panel of 10 commensals; experiment: Sugar-supported growth, whole panel of 10 commensals; details: 0.5% w/v sugar, summary in words
Method: (§1) An in vitro assay was performed to assess the ability of various bacterial strains, including commensals of the gastrointestinal tract, to utilize different sugars as growth substrates. This assay was designed to assess the ability of selected natural monosaccharides, disaccharides and synthetic sugars to promote the growth of microbiota associated with a healthy state. Bacterial strains were handled at all steps in an anaerobic chamber (AS-580, Anaerobe Systems) featuring a palladium catalyst. The chamber was initially made anaerobic by purging with an anaerobic gas mixture of 5% hydrogen, 5% carbon dioxide and 90% nitrogen and subsequently maintained in an anaerobic state using this same anaerobic gas mixture. Anaerobicity of the chamber was confirmed daily using Oxoid anaerobic indicator strips that change color in the presence of oxygen. All culture media, assay plates, other reagents and plastic consumables were pre-reduced in the anaerobic chamber for 24-48 hours prior to contact with bacteria. Sugars were prepared at 5% w/v in water, filter-sterilized and added to Costar 3370 assay plates for a final concentration of 0.5% w/v in the assay, with each microbiome regulator assayed in two non-adjacent wells and dextrose and water supplied as positive and negative controls.
(§2) Bacterial isolates were obtained from the American Type Culture Collection (ATCC) and Leibniz Institute DSMZ-German Institute of Microorganisms and Cell Cultures (DSMZ). Cultures of the Bacteroidetes Bacteroides caccae ATCC 43185 “BCA.26”, Bacteroides thetaiotaomicron ATCC 29741 “BTH.8”, Bacteroides cellulosilyticus DSM 14838 “BCE.71”, Parabacteroides distasonis ATCC 8503 “PDI.6” and Prevotella copri DSM 18205 “PCO.72”; the Clostridiales Clostridium scindens ATCC 35704 “CSC.32”, Dorea formicigenerans ATCC 27755 “DFO.36” and Ruminococcus obeum ATCC 29714 “ROB.74”; and the Bifidobacteria Bifidobacterium longum ATCC 15707 “BLO.16” and Bifidobacterium longum DSM 20088 “BLO.83”, were grown anaerobically in Chopped Meat Glucose broth (CMG, Anaerobe Systems), a pre-reduced enriched medium including lean ground beef, enzymatic digest of casein, yeast extract, potassium phosphate, dextrose, cysteine, hemin and Vitamin K1, for 18-48 hours at 37° C. Inocula were prepared by determining the optical density of each culture at […] (OD600) in a Costar 3370 polystyrene 96-well flat-bottom assay plate using a Biotek Synergy 2 plate reader with Gen5 2.0 All-In-One Microplate Reader Software according to manufacturer's protocol, and diluting the cells to OD600 0.01 final in defined and semi-defined media that were prepared without sugars. D. formicigenerans, P. distasonis and B. longum isolates were tested in 900 mg/L sodium chloride, 26 mg/L calcium chloride dihydrate, 20 mg/L magnesium chloride hexahydrate, 10 mg/L manganese chloride tetrahydrate, 40 mg/L ammonium sulfate, 4 mg/L iron sulfate heptahydrate, 1 mg/L cobalt chloride hexahydrate, 300 mg/L potassium phosphate dibasic, 1.5 g/L sodium phosphate dibasic, 5 g/L sodium bicarbonate, 0.125 mg/L biotin, 1 mg/L pyridoxine, […], 75 mg/L histidine, 75 mg/L glycine, 75 mg/L tryptophan, 150 mg/L arginine, 150 mg/L methionine, 150 mg/L threonine, 225 mg/L valine, 225 mg/L isoleucine, 300 mg/L leucine, 400 mg/L cysteine, and 450 mg/L proline (Theriot C M et al. Nat Commun. 2014; 5:3114), supplemented with 0-3.5% (v/v) CMG. B. thetaiotaomicron, B. caccae and B. cellulosyliticus were tested in 100 mM potassium phosphate buffer (pH 7.2), 15 mM sodium chloride, 8.5 mM ammonium sulfate, 4 mM L-cysteine, 1.9 μM hematin, 200 μM L-histidine, 100 μM magnesium chloride, 1.4 μM iron sulfate heptahydrate, 50 μM calcium chloride, 1 μg/mL vitamin K3 and 5 ng/mL vitamin B12 (Martens E C et al. Cell Host & Microbe 2008; 4, 447-457). […]

[2] = tested on: Bacteroides caccae ATCC 43185 "BCA.26"; experiment: Sugar-supported growth of commensal bacteria, BCA.26; details: 0.5% w/v sugar, 37° C., 18-24 hours, anaerobic; OD600 divided by OD600 with 0.5% w/v dextrose
Method: as §1, §2

[3] = tested on: Bacteroides cellulosilyticus DSM 14838 "BCE.71"; experiment: Sugar-supported growth of commensal bacteria, BCE.71; details: 0.5% w/v sugar, 37° C., 18-24 hours, anaerobic; OD600 divided by OD600 with 0.5% w/v dextrose
Method: as §1, §2

[4] = tested on: Bacteroides thetaiotaomicron ATCC 29741 "BTH.8"; experiment: Sugar-supported growth of commensal bacteria, BTH.8; details: 0.5% w/v sugar, 37° C., 18-24 hours, anaerobic; OD600 divided by OD600 with 0.5% w/v dextrose
Method: as §1, §2

[5] = tested on: Parabacteroides distasonis ATCC 8503 "PDI.6"; experiment: Sugar-supported growth of commensal bacteria, PDI.6; details: 0.5% w/v sugar, 37° C., 18-24 hours, anaerobic; OD600 divided by OD600 with 0.5% w/v dextrose
Method: as §1, §2

[6] = tested on: Prevotella copri DSM 18205 "PCO.72"; experiment: Sugar-supported growth of commensal bacteria, PCO.72; details: 0.5% w/v sugar, 37° C., 18-24 hours, anaerobic; OD600 divided by OD600 with 0.5% w/v dextrose
Method: as §1, §2

[7] = tested on: Clostridium scindens ATCC 35704 "CSC.32"; experiment: Sugar-supported growth of commensal bacteria, CSC.32; details: 0.5% w/v sugar, 37° C., 18-24 hours, anaerobic; OD600 divided by OD600 with 0.5% w/v dextrose
Method: as §1, §2

[8] = tested on: Dorea formicigenerans ATCC 27755 "DFO.36"; experiment: Sugar-supported growth of commensal bacteria, DFO.36; details: 0.5% w/v sugar, 37° C., 18-24 hours, anaerobic; OD600 divided by OD600 with 0.5% w/v dextrose
Method: as §1, §2

[9] = tested on: Bifidobacterium longum ATCC 15707 "BLO.16"; experiment: Sugar-supported growth of commensal bacteria, BLO.16; details: 0.5% w/v sugar, 37° C., 18-24 hours, anaerobic; OD600 divided by OD600 with 0.5% w/v dextrose
Method: as §1, §2

[10] = tested on: Ruminococcus obeum ATCC 29714 "ROB.74"; experiment: Sugar-supported growth of commensal bacteria, ROB.74; details: 0.5% w/v sugar, 37° C., 18-24 hours, anaerobic; OD600 divided by OD600 with 0.5% w/v dextrose
Method: as §1, §2

SMILES | taxa or strains of the commensal panel whose growth was supported [1] | Average Normalized Growth (NGV), BCA.26 [2] | Average Normalized Growth (NGV), BCE.71 [3] | Average Normalized Growth (NGV), BTH.8 [4] | Average Normalized Growth (NGV), PDI.6 [5] | Average Normalized Growth (NGV), PCO.72 [6] | Average Normalized Growth (NGV), CSC.32 [7] | Average Normalized Growth (NGV), DFO.36 [8] | Average Normalized Growth (NGV), BLO.16 [9] | Average Normalized Growth (NGV), ROB.74 [10]
OC[C@H]1O[C@@](CO)(O[C@H]2O[C@H](CO)[C@@H](O)[C@H](O)[C@H]2O)[C@@H](O)[C@@H]1O [sucrose] | supported some commensals from the taxa Bacteroidetes, Firmicutes, including Lachnospiraceae, and Bifidobacteria |  |  |  |  |  |  |  |  | 
OC[C@H]1O[C@H](O[C@H]2[C@H](O)[C@@H](O)[C@H](O)O[C@@H]2CO)[C@H](O)[C@@H](O)[C@@H]1O [D (+) maltose] | supported some commensals from the taxa Bacteroidetes, Firmicutes, including Lachnospiraceae, and Bifidobacteria | + (0.2-0.6) | ++ (0.6-1) | +++ (>1) | ++ (0.6-1) | +++ (>1) | − (<0.2) | +++ (>1) | +++ (>1) | 
OC[C@H]1O[C@H](O[C@]2(CCl)O[C@H](CCl)[C@@H](O)[C@@H]2O)[C@H](O)[C@@H](O)[C@H]1Cl [sucralose] | supported growth of PCO.72 alone among the panel of 10 commensals |  |  |  |  |  |  |  |  | 
O=C[C@H](O)[C@@H](O)[C@H](O)CO [D-xylose] | supported some commensals from the taxa Bacteroidetes and Bifidobacteria | +++ (>1) | ++ (0.6-1) | +++ (>1) | + (0.2-0.6) | ++ (0.6-1) | − (<0.2) | − (<0.2) | ++ (0.6-1) | − (<0.2)
O=C[C@H](O)[C@H](O)[C@H](O)CO [ribose] | supported some commensals from the taxa Bacteroidetes and Firmicutes | − (<0.2) | + (0.2-0.6) | − (<0.2) | +++ (>1) | − (<0.2) | +++ (>1) | +++ (>1) | − (<0.2) | − (<0.2)
OC[C@@H](O)[C@@H](O)[C@H](O)[C@H](O)CO [D-mannitol] | supported growth of CSC.32 alone among the panel of 10 commensals | − (<0.2) | − (<0.2) | − (<0.2) | − (<0.2) | − (<0.2) | + (0.2-0.6) |  | − (<0.2) | 
C[C@H](O)[C@@H](O)[C@@H](O)[C@H](O)C=O [L-fucose] | supported some commensals from the taxa Bacteroidetes and Firmicutes | +++ (>1) | + (0.2-0.6) | + (0.2-0.6) | − (<0.2) | − (<0.2) | − (<0.2) | − (<0.2) | − (<0.2) | ++ (0.6-1)
O=C[C@@H](O)[C@H](O)[C@H](O)CO [D (−) arabinose] | supported some commensals from the taxa Bacteroidetes and Firmicutes | ++ (0.6-1) | + (0.2-0.6) | ++ (0.6-1) | − (<0.2) | − (<0.2) | ++ (0.6-1) | − (<0.2) | − (<0.2) | ++ (0.6-1)
OC[C@H]1O[C@@H](O[C@@H]2[C@@H](CO)OC(O)(CO)[C@H]2O)[C@H](O)[C@@H](O)[C@H]1O (mixture of isomers) [lactulose] | supported growth of some strains from the taxa Bacteroidetes and Bifidobacteria | ++ (0.6-1) | ++ (0.6-1) | − (<0.2) | + (0.2-0.6) | ++ (0.6-1) | − (<0.2) |  |  | 
OC[C@@H](O)[C@@H](O)[C@H](O)[C@@H](O)CO [D-sorbitol] | supported growth of CSC.32 alone among the panel of 10 commensals |  |  |  |  |  |  |  |  | 
O=C[C@@H](O)[C@@H](O)[C@H](O)[C@H](O)CO [D-mannose] | supported some commensals from the taxa Bacteroidetes and Firmicutes | +++ (>1) | +++ (>1) | +++ (>1) | +++ (>1) | − (<0.2) | + (0.2-0.6) | − (<0.2) | − (<0.2) | ++ (0.6-1)

Reference: patent US20200009168A1, “MICROBIOME REGULATORS AND RELATED USES THEREOF” (KALEIDO BIOSCIENCES, INC., priority 2015, published 2020)
